Assay results reported in US20240398821A1, “FLAVONOID DERIVATIVES WITH GABAA RECEPTOR ACTIVITY AND METHODS OF USE” (RUTGERS, THE STATE UNIVERSITY OF NEW JERSEY, priority 2021, published 2024).
pEC50, pIC50: −log10 of the molar value.

Key:
GABAA α5θ3γ2L = molecular target: T1, GABAA α5θ3γ2L (Homo sapiens, UniProt P18507+P28472+P31644); experiment: SyncroPatch automated patch-clamp electrophysiology, PAM mode; assay type: cell-based
T1 construct: expressed in transfected cells
Procedure: (§1) To evaluate GABAA receptor activity, compounds were evaluated with electrophysiology studies of against 4 GABAA subtypes (GABAA α1β2γ2L, α2θ3γ2L, α5θ3γ2L and α4θ3δ) in positive allosteric modulator (PAM) mode using the SyncroPatch automated platform at room temperature. A 6-point concentration-response curve of each test compound (10, 1, 0.1, 0.01, 0.001, or 0.0001 μM in DMSO). The rapid addition protocol was used, in which compound is rapidly applied and then washed off from the cell. 0.3% DMSO was used as negative control.
(§2) Test compounds: 6-point concentration-response curve of each test compound (10, 1, 0.1, 0.01, 0.001, 0.0001 μM in DMO).
(§3) Positive control: 5-point concentration-response curve of allopregnanolone ([…]).
(§4) Negative control: 0.3% DMSO
(§5) Each compound is tested across the plate with a single concentration per cell. A minimum of 2 wells are obtained per each concentration.
(§6) Powder stocks and DMSO stocks are stored at room temperature (in the dark). The powder stocks are diluted to 3 mM in 100% DMSO on the day of experiment.
(§7) SyncroPatch specific solutions are used throughout the assay. DMSO remains constant at 0.3% in the external solution throughout the assay.
(§8) The rapid addition protocol is used, in which compound is rapidly applied and then washed off from the cell. To test for PAM activity, the agonist GABA EC10-20 is applied three times (with wash steps in-between) as a control and to show activation reproducibility, followed by a 1 to 2 minute pre-incubation of client compound and then re-application of GABA EC10-20 in the presence of client compound. After a further wash step, maximum GABA (10 mM) is applied.
(§9) Automated patch clamp-recordings are performed using the SyncroPatch 384i. The voltage protocol generation and data collection are performed with PatchController384 V1.9.0 and Data Controller V1.9.0.
(§10) The fold increase is generated using the following equation, (Icomp/Icontrol)−1, where Icomp is the current amplitude in the presence of the compound and Icontrol is the current amplitude in the presence of agonist alone. This builds an EC50 concentration-response curve, where 0 represents no PAM activity and >0 represents PAM activity. […] The % Emax relative to Allopregnanolone is generated using the following equation, • [(IMaxComp/IAveMaxCtrl)*100], where IMaxComp is the individual maximum fold increase in current for each compound and IAveMaxCtrl is the average maximum fold increase generated in the presence of the control, allopregnanolone.
(§11) To test for PAM activity, the agonist GABA EC 10-20 was applied three times (with wash steps in-between) as a control and to show activation reproducibility, followed by a 1 to 2 minutes pre-incubation of client compound and then re-application of GABA EC 10-20 in the presence of client compound. After a further wash step, maximum GABA (10 mM) was applied. Allopregnanolone was utilized as a positive control. FIGS. 5A and 5B show for dose response of EC2-118 in comparison to that of allopregnanolone (positive control).

GABAA α2θ3γ2L = molecular target: T2, GABAA α2θ3γ2L (Homo sapiens, UniProt P18507+P28472+P47869); experiment: as above; assay type: cell-based
T2 construct: expressed in transfected cells
T2 sequence (P47869 29-451): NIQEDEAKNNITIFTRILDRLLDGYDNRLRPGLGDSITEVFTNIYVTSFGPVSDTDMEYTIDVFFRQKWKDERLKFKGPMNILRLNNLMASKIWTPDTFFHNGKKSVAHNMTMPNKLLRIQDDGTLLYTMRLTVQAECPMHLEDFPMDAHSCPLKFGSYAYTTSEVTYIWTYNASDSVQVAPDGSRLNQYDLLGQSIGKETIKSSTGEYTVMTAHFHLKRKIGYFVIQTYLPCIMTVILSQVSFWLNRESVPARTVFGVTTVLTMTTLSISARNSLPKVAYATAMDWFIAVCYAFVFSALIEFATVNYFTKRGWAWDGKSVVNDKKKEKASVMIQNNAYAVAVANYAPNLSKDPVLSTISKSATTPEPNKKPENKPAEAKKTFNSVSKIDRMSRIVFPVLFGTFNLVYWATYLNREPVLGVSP
T2 sequence (P28472 26-473): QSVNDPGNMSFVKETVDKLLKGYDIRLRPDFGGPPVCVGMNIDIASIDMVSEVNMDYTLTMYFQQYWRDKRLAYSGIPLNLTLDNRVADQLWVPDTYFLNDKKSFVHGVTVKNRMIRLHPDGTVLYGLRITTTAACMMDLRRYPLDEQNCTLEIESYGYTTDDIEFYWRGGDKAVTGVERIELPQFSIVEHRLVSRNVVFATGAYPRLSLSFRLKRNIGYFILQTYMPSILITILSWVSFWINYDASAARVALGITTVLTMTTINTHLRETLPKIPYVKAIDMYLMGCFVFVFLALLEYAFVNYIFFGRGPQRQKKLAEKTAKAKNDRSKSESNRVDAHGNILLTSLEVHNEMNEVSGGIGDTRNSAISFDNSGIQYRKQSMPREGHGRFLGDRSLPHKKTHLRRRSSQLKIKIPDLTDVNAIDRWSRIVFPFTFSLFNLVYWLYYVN
T2 sequence (P18507 40-475): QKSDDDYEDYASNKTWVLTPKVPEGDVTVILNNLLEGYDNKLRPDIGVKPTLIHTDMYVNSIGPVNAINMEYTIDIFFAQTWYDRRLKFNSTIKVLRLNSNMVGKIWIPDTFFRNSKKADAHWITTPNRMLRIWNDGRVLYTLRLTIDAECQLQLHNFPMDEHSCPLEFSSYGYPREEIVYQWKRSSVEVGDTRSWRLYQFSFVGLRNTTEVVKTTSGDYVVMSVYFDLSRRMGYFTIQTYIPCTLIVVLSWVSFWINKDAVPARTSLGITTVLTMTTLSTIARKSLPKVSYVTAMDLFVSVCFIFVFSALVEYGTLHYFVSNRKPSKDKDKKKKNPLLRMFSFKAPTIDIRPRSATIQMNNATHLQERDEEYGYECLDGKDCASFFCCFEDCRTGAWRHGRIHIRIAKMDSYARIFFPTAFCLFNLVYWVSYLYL
Procedure: as §1, §2, §3, §4, §5, §6, §7, §8, §9, §10, §11

GABAA receptor = experiment: Preliminary classification of GABAAR modulation from electrophysiology against 4 GABAA subtypes; assay type: cell-based; conditions: from the four subtype results
Excerpt: As an assessment for potential anxiolytic activity, compounds were screened for in vitro GABAA receptor activity utilizing electrophysiology studies. This is a well-established method of assessing activity of GABAA receptor positive allosteric modulators (PAMs) with known anxiolytic activity. The link between anxiolytic and sedative activity associated with α1/2/3βγ GABAAR subtypes is also well-established by previous studies. and there is a well-established history of clinical efficacy, utility, and risks associated with the use of full GABAAR PAMs [i.e. benzodiazepines (BZDs)] in the treatment of anxiety and seizure disorders.
as §1
The fold increase is generated using the following equation, (Icomp/Icontrol)−1, where Icomp is the current amplitude in the presence of the compound and Icontrol is the current amplitude in the presence of agonist alone. This builds an EC50 concentration-response curve, where 0 represents no PAM activity and >0 represents PAM activity. If a “bell-shape curve” is observed at the higher concentrations, showing a reduction in activity in comparison to previous concentrations, then to allow for a more accurate curve fit, these concentrations are removed from the graphs where necessary and noted in the compound table. The % Emax relative to Allopregnanolone is generated using the following equation, • [(IMaxComp/IAveMaxCtrl)*100], where IMaxComp is the individual maximum fold increase in current for each compound and IAveMaxCtrl is the average maximum fold increase generated in the presence of the control, allopregnanolone.

GABAA α1β2γ2L = molecular target: T3, GABAA α1β2γ2L (Homo sapiens, UniProt P14867+P18507+P47870); experiment: SyncroPatch automated patch-clamp electrophysiology, PAM mode; assay type: cell-based; conditions: for Potency, α1βy, % in brackets: bracketed % beside EC50/IC50
T3 construct: expressed in transfected cells
T3 sequence (P14867 28-456): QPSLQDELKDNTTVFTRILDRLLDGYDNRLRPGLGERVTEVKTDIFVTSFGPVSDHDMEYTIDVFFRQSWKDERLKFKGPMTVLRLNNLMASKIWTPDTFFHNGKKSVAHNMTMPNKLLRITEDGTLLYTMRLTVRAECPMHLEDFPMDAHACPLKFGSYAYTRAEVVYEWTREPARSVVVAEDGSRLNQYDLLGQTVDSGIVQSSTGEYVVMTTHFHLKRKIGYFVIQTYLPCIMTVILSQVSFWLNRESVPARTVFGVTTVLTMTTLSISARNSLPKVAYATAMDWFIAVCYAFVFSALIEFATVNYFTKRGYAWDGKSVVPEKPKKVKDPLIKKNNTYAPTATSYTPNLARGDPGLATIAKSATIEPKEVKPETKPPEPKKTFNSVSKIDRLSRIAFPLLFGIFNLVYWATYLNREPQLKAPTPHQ
T3 sequence (P47870 25-512 limits assumed): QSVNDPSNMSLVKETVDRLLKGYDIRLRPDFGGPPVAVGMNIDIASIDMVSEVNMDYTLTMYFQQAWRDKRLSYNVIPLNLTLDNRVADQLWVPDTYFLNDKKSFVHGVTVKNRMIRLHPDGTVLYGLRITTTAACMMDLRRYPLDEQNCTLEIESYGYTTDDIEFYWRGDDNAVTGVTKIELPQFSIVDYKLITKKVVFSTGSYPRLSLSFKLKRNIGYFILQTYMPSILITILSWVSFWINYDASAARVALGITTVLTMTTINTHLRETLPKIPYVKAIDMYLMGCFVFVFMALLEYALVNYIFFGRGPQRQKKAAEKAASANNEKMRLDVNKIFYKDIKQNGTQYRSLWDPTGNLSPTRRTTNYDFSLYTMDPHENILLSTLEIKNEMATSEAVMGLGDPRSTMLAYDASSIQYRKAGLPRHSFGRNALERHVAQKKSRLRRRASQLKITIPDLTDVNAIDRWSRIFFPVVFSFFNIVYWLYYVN
T3 sequence (P18507 40-475): as the sequence (P18507 40-475) above
Procedure: as §1, with “A 6-point concentration-response curve of each test compound (10, 1, 0.1, 0.01, 0.001, or 0.0001 μM in DMSO).” left out
as §3, §4, §5, §6, §7
(§12) The rapid addition protocol is used, in which compound is rapidly applied and then washed off from the cell. […] After a further wash step, maximum GABA (10 mM) is applied.
(§13) The voltage protocol generation and data collection are performed with PatchController384 V1.9.0 and Data Controller V1.9.0.
as §10, with “alone.” for “alone. This builds an EC50 concentration-response curve, where 0 represents no PAM activity and >0 represents PAM activity.”
(§14) After a further wash step, maximum GABA (10 mM) was applied. Allopregnanolone was utilized as a positive control.

GABAA α4θ3δ = molecular target: T4, GABAA α4θ3δ (Homo sapiens, UniProt O14764+P28472+P48169); experiment: as above; assay type: cell-based; conditions: for Potency, α4βδ (also printed α4βy), *EC50: PAM mode, GABA EC10-20, 6-point curve up to 10 μM
T4 construct: expressed in transfected cells
T4 sequence (P48169 36-554): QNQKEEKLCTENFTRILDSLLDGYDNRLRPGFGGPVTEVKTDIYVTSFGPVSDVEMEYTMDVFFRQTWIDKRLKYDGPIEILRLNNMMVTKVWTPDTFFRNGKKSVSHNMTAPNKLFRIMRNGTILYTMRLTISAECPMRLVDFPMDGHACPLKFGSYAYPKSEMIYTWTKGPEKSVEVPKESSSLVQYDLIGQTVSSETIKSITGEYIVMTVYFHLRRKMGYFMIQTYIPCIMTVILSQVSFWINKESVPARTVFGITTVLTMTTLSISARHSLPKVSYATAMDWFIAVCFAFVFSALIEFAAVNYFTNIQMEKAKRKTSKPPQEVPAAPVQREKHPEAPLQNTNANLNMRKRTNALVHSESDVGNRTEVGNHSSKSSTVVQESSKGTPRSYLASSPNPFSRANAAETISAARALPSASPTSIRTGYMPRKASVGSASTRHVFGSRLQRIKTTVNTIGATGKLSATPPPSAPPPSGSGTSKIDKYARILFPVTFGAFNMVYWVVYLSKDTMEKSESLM
T4 sequence (P28472 26-473): as the sequence (P28472 26-473) above
T4 sequence (O14764 17-452 limits assumed): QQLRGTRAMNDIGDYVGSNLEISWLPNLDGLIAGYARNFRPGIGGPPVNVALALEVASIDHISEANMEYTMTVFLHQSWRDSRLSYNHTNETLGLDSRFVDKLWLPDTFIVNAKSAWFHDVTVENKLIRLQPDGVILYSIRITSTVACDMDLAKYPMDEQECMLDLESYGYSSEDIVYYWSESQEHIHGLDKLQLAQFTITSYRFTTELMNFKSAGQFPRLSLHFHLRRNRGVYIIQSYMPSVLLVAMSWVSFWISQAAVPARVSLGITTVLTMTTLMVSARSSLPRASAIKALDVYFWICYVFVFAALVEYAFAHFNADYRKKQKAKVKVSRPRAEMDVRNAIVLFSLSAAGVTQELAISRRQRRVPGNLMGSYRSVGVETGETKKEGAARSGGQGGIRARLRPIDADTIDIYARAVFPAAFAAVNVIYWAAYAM
Procedure: as §1, with “A 6-point concentration-response curve of each test compound (10, 1, 0.1, 0.01, 0.001, or 0.0001 μM in DMSO).” left out
as §3, §4, §5, §6, §7, §12, §13
as §10, with “alone.” for “alone. This builds an EC50 concentration-response curve, where 0 represents no PAM activity and >0 represents PAM activity.”
as §14

loss-of-righting-reflex = experiment: Loss-of-righting-reflex (LORR), alone and with alcohol; assay type: in vivo; conditions: rats
Procedure: Rats were given EC2-118 (3.95 mg/kg IP) and alcohol (3 g/kg) and assessed for duration of loss-of-righting-reflex (LORR). […] The effects of EC2-118 (12.5 mg/kg IP) on alcohol-induced LORR were not determined.

anxiety = experiment: Open field test (OFT) and elevated plus maze (EPM), IP administration; assay type: in vivo, rats
Procedure: FIG. 7 is a representation of rat movements during an open field test. Increased time in the open arms signifies anti-anxiety activity. […] The purple lines represent the motion of the rat.
In vivo studies in rats were conducted in the Bello laboratory as preliminary screening for activity of EC2-118. Male and female rats were exposed to an open field test (OFT) and elevated plus maze (EPM) 7 days apart (Kshatriya et al., 2020). Each group (n=8/group, […]) received IP injection 30 min prior to IP dosing of EC2-118 or vehicle control. We performed OFT and EPM in 52 adult SD rats (26 male/26 female). The groups were as follow vehicle (0.9% Saline, 4% Tween 80, and 4% DMSO; n=9 males; n=10 females), 3.95 mg/kg (n=10 males; n=8 females), 12.5 mg/kg (n=7 males, females n=8).

[1] = PAM mode, GABA EC10-20, 6-point curve up to 10 μM, EC50 called extrapolated
[2] = PAM mode, GABA EC10-20, 6-point curve up to 10 μM

T1 sequence (P31644 32-462): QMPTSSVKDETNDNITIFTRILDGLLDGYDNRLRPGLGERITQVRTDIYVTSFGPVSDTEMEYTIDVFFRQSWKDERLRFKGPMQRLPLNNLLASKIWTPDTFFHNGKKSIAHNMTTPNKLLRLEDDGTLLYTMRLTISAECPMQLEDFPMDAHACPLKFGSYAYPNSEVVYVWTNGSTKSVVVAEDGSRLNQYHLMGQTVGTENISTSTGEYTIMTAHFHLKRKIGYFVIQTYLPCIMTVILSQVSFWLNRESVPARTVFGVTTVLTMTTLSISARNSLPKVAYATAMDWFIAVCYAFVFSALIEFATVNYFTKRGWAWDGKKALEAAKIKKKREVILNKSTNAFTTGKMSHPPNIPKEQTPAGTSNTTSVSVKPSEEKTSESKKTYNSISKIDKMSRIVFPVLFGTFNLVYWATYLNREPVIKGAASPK
T1 sequence (P28472 26-473): as the sequence (P28472 26-473) above
T1 sequence (P18507 40-475): as the sequence (P18507 40-475) above

pEC50 (GABAA α5θ3γ2L; PAM mode, GABA EC10-20, 6-point curve up to 10 μM, read-out: Potency, α5βy, *EC50) | Potency, α5βy, % in brackets (GABAA α5θ3γ2L; bracketed % beside EC50/IC50) | Preliminary Classification of type of GABAAR modulation (GABAA receptor) | Potency, α1βy, *EC50 (GABAA α1β2γ2L; [1]) | Potency, α4βδ (also printed α4βy), *EC50 (GABAA α4θ3δ) | Induction of LORR by compound alone (loss-of-righting-reflex; 3.95 mg/kg, 12.95 IP) | pEC50 (GABAA α2θ3γ2L; PAM mode, GABA EC10-20, 6-point curve up to 10 μM, EC50 called extrapolated, read-out: Potency, α2βy, *EC50) | Potency, α2βy, % in brackets (GABAA α2θ3γ2L; bracketed % beside EC50/IC50) | pEC50 (GABAA α1β2γ2L; PAM mode, GABA EC10-20, 6-point curve up to 10 μM, EC50 called extrapolated, read-out: Potency, α1βy, *EC50) | Lethargy (observation) (anxiety; 12.5 mg/kg IP, rats) | SMILES | Potency, α2βy, *EC50 (GABAA α2θ3γ2L; [1]) | Impact on alcohol-induced LORR (duration) (loss-of-righting-reflex; 3.95 mg/kg IP with alcohol 3 g/kg) | Potency, α5βy, *EC50 (GABAA α5θ3γ2L; [2]) | Potency, α1βy, % in brackets (GABAA α1β2γ2L) | Anxiolytic effect in OFT and EPM vs vehicle control (anxiety; 3.95 mg/kg IP, male and female SD rats, two-way ANOVA) | Effect in the open field test (OFT) (anxiety; 12.5 mg/kg IP, rats) | pIC50 (GABAA α1β2γ2L) | pIC50 (GABAA α4θ3δ) | Potency, α4βδ (also printed α4βy), % in brackets (GABAA α4θ3δ; bracketed % beside EC50/IC50)
5.72 | +22% | Partial α5 GABAAR PAM | N.R. | N.R. |  |  |  |  |  | O=C1c2cc(Br)ccc2OC(c2ccccc2)C1(CO)CO (stereo not shown) [EC2-52, 6-bromo-3,3-bis(hydroxymethyl)-2-phenylchroman-4-one] | N.R. |  |  |  |  |  |  |  | 
 |  | Partial α1/2 GABAAR PAM |  | N.R. | did not induce an LORR | 6.90 | +26% | 6.87 | increased lethargy | O=C1NC(c2cccc([N+](=O)[O-])c2)Oc2ccc(Br)cc21 (stereo not shown) [EC2-118, 6-bromo-2-(3-nitrophenyl)-2,3-dihydro-4H-benzo[e][1,3]oxazin-4-one] |  | did not have a significant impact on alcohol-induced LORR | N.R. | +29% | significant differences between 3.95 mg/kg dose and vehicle control | did not exhibit a significant effect |  |  | 

SMILES | pEC50 (GABAA α5θ3γ2L; PAM mode, GABA EC10-20, 6-point curve up to 10 μM, read-out: Potency, α5βy, *EC50) | Potency, α5βy, % in brackets (GABAA α5θ3γ2L; bracketed % beside EC50/IC50) | Preliminary Classification of type of GABAAR modulation (GABAA receptor) | Potency, α1βy, *EC50 (GABAA α1β2γ2L; [1]) | Potency, α4βδ (also printed α4βy), *EC50 (GABAA α4θ3δ) | Induction of LORR by compound alone (loss-of-righting-reflex; 3.95 mg/kg, 12.95 IP) | pEC50 (GABAA α2θ3γ2L; PAM mode, GABA EC10-20, 6-point curve up to 10 μM, EC50 called extrapolated, read-out: Potency, α2βy, *EC50) | Potency, α2βy, % in brackets (GABAA α2θ3γ2L; bracketed % beside EC50/IC50) | pEC50 (GABAA α1β2γ2L; PAM mode, GABA EC10-20, 6-point curve up to 10 μM, EC50 called extrapolated, read-out: Potency, α1βy, *EC50) | Lethargy (observation) (anxiety; 12.5 mg/kg IP, rats) | Potency, α2βy, *EC50 (GABAA α2θ3γ2L; [1]) | Impact on alcohol-induced LORR (duration) (loss-of-righting-reflex; 3.95 mg/kg IP with alcohol 3 g/kg) | Potency, α5βy, *EC50 (GABAA α5θ3γ2L; [2]) | Potency, α1βy, % in brackets (GABAA α1β2γ2L) | Anxiolytic effect in OFT and EPM vs vehicle control (anxiety; 3.95 mg/kg IP, male and female SD rats, two-way ANOVA) | Effect in the open field test (OFT) (anxiety; 12.5 mg/kg IP, rats) | pIC50 (GABAA α1β2γ2L) | pIC50 (GABAA α4θ3δ) | Potency, α4βδ (also printed α4βy), % in brackets (GABAA α4θ3δ; bracketed % beside EC50/IC50)
O=c1cc(-c2cccc([N+](=O)[O-])c2)oc2ccc(Br)cc12 [6-bromo-3′-nitroflavone, reference compound] |  |  | Partial α1 NAM |  |  |  |  |  |  |  | N.R. |  | N.R. | −21% |  |  | 8.23 | < 5.00 | −30%
